Experimental data as given in US20110190280A1, “Thiazole And Oxazole Kinase Inhibitors” (priority 2007, published 2011).

Columns and labels:
[1] = test system: Colo205 tumor cells; assay: Cell growth inhibition assay (CellTiter-Glo), Colo205; conditions: Homo sapiens, COLO 205, 72 h, read-out: Activity in Colo205 Tumor Cells;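 note: growth measured via total ATP luminescence (CellTiter-Glo) as a proxy for cell number, inhibition expressed against DMSO-treated control wells, 3-day exposure at 0.2% final DMSO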
Description: (§9) Cell Growth Inhibition Assays Human colon tumor cells (Colo205) were cultured in RPMI (Mediatech 50-020-PB) containing 10% FBS and 1% penicillin-streptomycin. […] Human melanoma cancer cells (A375-F11S) were cultured in RPMI (Mediatech 50-020-PB) containing 10% FBS, 1% sodium pyruvate, and 1% penicillin-streptomycin. Human colon cancer cells (HT-29) were cultured in high glucose DMEM (Mediatech 50-013-PB) containing 10% FBS and 1% penicillin-streptomycin. Human melanoma cancer cells (SK-MEL-3) were cultured in McCoy's 5A (50-025-PB) containing 15% FBS, and 1% penicillin-streptomycin. All cell lines were maintained at 37° C. in a humidified 5% CO2, 95% air incubator.
(§10) The next day, compounds were diluted as follows: For 96-well assays, 13.5 μl of compound in DMSO were diluted using nine (9) serial 1:3 dilutions of 4.5 μl in 9 μl of DMSO. Medium (270 μl/well of RPMI with 10% FBS and 1% penicillin-streptomycin) was added to the plates. Aliquots (7 μl) were added to cells in the final assay giving a final DMSO concentration of 0.2%. For 384-well assays, 15 μl of compound in DMSO were diluted using nine (9) serial 1:3 dilutions of 5 μl in 10 μl of DMSO, followed by a further dilution of 5 μl of compound with 95 μl of medium, of which 2 μl are added to cells in the final assay giving a final DMSO concentration of 0.2%. Cells were incubated at 37° C., 5% CO2 for 3 days.
(§11) Total ATP was measured (as a surrogate estimate of cell number) using CellTiter-Glo® (Promega G7571) reagent. Briefly, plates were removed from the incubator and allowed to equilibrate to room temperature for 30 minutes. CellTiter-Glo® (25 μl or 55 μl for 384-well or 96-well assays, respectively) reagent was added to each well and plates were shaken on an orbital plate shaker for 2 minutes. Plates were incubated without shaking for a further 30 minutes and read on an LJL Analyst GT reader in luminometer mode with an integration time of 0.5 seconds per well. Percent inhibition of cell growth was calculated relative to DMSO vehicle-treated control wells.

[2] = test system: A375P tumor cells; assay: Cell growth inhibition assay (CellTiter-Glo), A375P; conditions: Homo sapiens, 72 h, read-out: Activity in A375P Tumor Cells;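 note: total ATP luminescence used as proxy for cell number, serial threefold compound dilutions at 0.2% DMSO, growth inhibition expressed versus DMSO vehicle-treated wells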
[3] = molecular target: B-Raf (Homo sapiens, UniProt P15056); assay: B-Raf Accelerated MEK ATPase assay (BRAMA); type: biochemical; conditions: BRAMA enzyme assay; class by pIC50; read-out: B-Raf Activity
Procedure, shortened: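 B-Raf activity read as intrinsic MEK ATPase: catalytic activated RAF with non-phosphorylated MEK drives ADP formation, coupled through pyruvate kinase and lactate dehydrogenase to NADH oxidation, independent of ERK phosphorylation.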

[4] = molecular target: ErbB2 (Homo sapiens, UniProt P04626); assay: ErbB2 kinase autophosphorylation assay (peptide phosphorylation, HTRF); type: biochemical; conditions: 10 nM ErbB2, HTRF; class by pIC50
Description: (§1) A selection of compounds of the present invention were tested for inhibitory activity against EGFR and ErbB2 kinases in autophosphorylation assays.
(§2) The method measures the ability of the isolated enzyme to catalyse the transfer of the gamma-phosphate from ATP onto the tyrosine residue of a biotinylated synthetic peptide referenced “Peptide C” in Brignola, P. S., et al, (2002) J. Biol. Chem. 277(2):1576-1585. The extent of tyrosine phosphorylation was measured using an anti-phosphotyrosine antibody, and quantified by homogenous time-resolved fluorescence (HTRF).
(§3) Reactions were performed in black 384-well polystyrene flat-bottom plates in a final volume of 20 ul. Assays were performed by adding 10 μl of each of the following solutions, substrate Mix and enzyme mix: The Substrate mix contained 100 mM 3-[N-morpholino]propanesulfonic acid (MOPS) (pH 7.5), 2 mM MnCl2, 20 μM ATP, 0.01% Tween-20, 0.1 mg/mL (BSA), 0.8 uM peptide substrate, and 1 mM dithiothreitol. The enzyme mix contained 100 mM MOPS (pH7.5); 0.01% Tween-20; 0.1 mg/mL BSA, and either 0.8 nM EGFR, 10 nM ErbB2, or 1 nM ErbB4
(§4) The enzyme mix was added to the compound plates and the plates were incubated at 20° C. for 1 hour. The reactions were allowed to proceed for 90 minutes at 20° C. The reactions were then terminated by the addition of 20 μl 100 mM EDTA to each well. 40 μl/well of HTRF detection mix were added to the assay plates. The final concentrations of the detection reagents were: 100 mM HEPES (pH7.5), 0.1 mg/mL BSA, 15 nM streptavidin-labeled allophycocyanin (PerkinElmer), and 1 nM europium-labeled anti-phosphotyrosine antibody (PerkinElmer). Assay plates were left unsealed and were counted in a Wallac Multilabel Counter 1420 (PerkinElmer).
(§5) Compounds under analysis were dissolved in Me2SO to 1.0 mM and serially diluted 1 to 3 with Me2SO through twelve dilutions. 1 μl of each concentration was transferred to the corresponding well of an assay plate. This creates a final compound concentration range from 0.00027 to 47.6 μM.
(§6) The data for dose responses were plotted as % Inhibition calculated with the data reduction formula 100*(1−(U1−C2)/(C1−C2)) versus concentration of compound where U is the unknown value, C1 is the average control value obtained for 4.76% DMSO, and C2 is the average control value obtained for 0.035 M EDTA. Data were fitted with a curve described by:
(§7) where Vmax is the upper asymptote, Y2 is the Y intercept, and K is the IC50. The results for each compound were recorded as pIC50s, calculated as follows: […]
(§8) In the following table: • “+” indicates no pIC50 measurement greater than 6 against EGFR or ErbB2, • “++” indicates at least one pIC50 measurement greater than 6 against EGFR or ErbB2 but no measurement greater than pIC50 of 7; and • “+++” indicates at least one pIC50 measurement of greater than 7 against EGFR or ErbB2.

[5] = molecular target: EGFR (Homo sapiens, UniProt P00533); assay: EGFR kinase autophosphorylation assay (peptide phosphorylation, HTRF); type: biochemical; conditions: 0.8 nM EGFR, class by pIC50
Description: as §1, §2, §3, §4, §5, §6, §7, §8

[6] = test system: SK-MEL-28 tumor cells; assay: Cell growth inhibition assay (CellTiter-Glo), SK-MEL-28; conditions: Homo sapiens, SK-MEL-28, 72 h, read-out: Activity in SK-MEL-28 Tumor Cells;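 note: luminescent total ATP as a proxy for cell number, threefold serial dilutions at 0.2% DMSO, percent growth inhibition versus DMSO vehicle control wells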
[7] = test system: HT-29 tumor cells; assay: Cell growth inhibition assay (CellTiter-Glo), HT-29; conditions: Homo sapiens, HT-29, 72 h, read-out: Activity in HT-29 Tumor Cells;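 note: ATP content read by luminescence as proxy for cell number, growth inhibition versus DMSO vehicle wells, 0.2% DMSO final, nine serial threefold compound dilutions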
Description: as §9, §10, §11

[8] = test system: SK-MEL-3 tumor cells; assay: Cell growth inhibition assay (CellTiter-Glo), SK-MEL-3; conditions: Homo sapiens, SK-MEL3, 72 h, read-out: Activity in SK-MEL-3 Tumor Cells;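 note: human melanoma cells grown with compound for 3 days in 0.2% DMSO, total ATP read by luminescence as proxy for cell number, growth inhibition versus DMSO-treated wells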
Description: as §9, §10, §11

Chain of B-Raf (P15056 whole entry): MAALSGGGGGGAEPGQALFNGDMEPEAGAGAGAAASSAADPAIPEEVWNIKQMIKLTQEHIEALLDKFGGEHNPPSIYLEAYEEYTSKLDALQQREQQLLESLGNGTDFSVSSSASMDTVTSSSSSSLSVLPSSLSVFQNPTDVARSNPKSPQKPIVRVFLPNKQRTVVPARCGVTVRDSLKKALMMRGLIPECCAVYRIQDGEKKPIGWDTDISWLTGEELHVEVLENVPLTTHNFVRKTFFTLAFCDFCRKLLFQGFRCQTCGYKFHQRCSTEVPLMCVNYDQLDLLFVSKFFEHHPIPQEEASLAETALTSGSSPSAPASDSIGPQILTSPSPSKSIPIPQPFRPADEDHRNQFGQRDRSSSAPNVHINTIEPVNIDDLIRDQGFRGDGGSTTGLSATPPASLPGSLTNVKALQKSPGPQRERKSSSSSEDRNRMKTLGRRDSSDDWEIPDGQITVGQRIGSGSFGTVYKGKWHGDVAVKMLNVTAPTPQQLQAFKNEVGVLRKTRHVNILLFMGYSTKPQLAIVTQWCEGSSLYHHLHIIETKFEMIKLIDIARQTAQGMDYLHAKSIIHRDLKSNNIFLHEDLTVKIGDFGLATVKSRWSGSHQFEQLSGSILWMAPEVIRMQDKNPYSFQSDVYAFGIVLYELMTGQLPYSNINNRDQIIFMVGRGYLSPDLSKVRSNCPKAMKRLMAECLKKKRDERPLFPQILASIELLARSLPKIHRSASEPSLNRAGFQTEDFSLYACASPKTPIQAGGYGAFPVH
Chain of EGFR (P00533 25-1210): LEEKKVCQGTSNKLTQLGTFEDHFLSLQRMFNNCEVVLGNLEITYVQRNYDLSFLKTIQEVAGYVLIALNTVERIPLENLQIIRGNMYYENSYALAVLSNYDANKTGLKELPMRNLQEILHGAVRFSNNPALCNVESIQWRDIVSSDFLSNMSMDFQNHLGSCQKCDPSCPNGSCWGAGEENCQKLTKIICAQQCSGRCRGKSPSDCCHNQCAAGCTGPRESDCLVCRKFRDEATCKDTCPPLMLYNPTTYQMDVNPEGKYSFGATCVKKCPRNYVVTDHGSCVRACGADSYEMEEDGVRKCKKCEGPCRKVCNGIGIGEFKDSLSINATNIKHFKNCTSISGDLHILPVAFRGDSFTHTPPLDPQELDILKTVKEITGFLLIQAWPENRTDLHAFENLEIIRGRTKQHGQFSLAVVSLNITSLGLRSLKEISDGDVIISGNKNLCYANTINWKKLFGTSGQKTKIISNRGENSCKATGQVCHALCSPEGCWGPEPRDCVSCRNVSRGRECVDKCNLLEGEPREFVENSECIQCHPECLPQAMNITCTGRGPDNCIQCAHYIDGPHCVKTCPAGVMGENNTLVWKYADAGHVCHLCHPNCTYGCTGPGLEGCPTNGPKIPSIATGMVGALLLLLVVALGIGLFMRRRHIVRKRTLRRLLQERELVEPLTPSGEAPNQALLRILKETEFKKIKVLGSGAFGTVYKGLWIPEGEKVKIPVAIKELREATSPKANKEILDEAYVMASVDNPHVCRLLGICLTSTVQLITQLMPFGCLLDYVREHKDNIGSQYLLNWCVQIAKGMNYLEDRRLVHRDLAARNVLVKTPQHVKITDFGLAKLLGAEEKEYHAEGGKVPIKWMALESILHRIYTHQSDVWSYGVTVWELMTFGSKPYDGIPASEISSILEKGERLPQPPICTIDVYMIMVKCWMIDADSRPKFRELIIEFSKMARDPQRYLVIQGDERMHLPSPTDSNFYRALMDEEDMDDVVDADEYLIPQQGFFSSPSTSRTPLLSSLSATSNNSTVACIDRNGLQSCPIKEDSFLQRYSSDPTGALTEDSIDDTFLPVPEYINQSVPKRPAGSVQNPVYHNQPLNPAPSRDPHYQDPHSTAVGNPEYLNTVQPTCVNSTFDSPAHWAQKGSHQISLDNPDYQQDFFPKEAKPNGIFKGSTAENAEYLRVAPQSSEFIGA
Chain of ErbB2 (P04626 23-1255): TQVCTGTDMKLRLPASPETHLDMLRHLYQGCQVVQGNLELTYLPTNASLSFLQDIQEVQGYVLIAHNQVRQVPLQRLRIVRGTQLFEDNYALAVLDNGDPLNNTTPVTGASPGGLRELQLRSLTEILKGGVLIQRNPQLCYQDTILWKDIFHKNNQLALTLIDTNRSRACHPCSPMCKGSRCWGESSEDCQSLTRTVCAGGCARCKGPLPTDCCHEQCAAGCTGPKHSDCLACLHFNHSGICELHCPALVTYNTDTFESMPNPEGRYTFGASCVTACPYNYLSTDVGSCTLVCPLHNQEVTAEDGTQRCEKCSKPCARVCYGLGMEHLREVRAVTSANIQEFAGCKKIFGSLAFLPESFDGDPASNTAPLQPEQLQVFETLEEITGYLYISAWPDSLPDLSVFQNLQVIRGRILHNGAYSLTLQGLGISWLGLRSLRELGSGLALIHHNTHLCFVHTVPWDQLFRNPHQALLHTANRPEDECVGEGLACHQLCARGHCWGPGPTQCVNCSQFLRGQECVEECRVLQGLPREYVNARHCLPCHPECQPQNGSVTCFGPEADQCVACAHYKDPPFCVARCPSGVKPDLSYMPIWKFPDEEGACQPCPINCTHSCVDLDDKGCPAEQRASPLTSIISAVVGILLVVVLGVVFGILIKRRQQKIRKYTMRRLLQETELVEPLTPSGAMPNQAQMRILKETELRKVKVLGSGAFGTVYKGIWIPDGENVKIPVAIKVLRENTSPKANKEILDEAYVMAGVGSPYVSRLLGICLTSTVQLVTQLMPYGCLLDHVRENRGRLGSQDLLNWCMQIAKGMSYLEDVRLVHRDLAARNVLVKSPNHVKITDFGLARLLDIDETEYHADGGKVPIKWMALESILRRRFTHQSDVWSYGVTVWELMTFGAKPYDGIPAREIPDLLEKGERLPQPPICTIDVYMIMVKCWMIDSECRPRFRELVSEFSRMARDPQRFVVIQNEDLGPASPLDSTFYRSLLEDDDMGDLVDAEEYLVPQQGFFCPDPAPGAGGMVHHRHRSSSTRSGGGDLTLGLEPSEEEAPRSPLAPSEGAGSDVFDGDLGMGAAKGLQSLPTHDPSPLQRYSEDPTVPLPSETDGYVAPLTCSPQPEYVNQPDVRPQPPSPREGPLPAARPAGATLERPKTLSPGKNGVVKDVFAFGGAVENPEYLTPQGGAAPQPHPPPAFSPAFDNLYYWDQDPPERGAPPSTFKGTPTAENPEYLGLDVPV

Row | IC50 [1] | IC50 [2] | IC50 [3] | IC50 [4] | IC50 [5] | IC50 [6] | IC50 [7] | IC50 [8] | SMILES
1 | < 0.5 µM | 0.5 to 5 µM | < 0.1 µM | > 1 µM | > 1 µM | 0.5 to 5 µM | 0.5 to 5 µM | < 0.5 µM | CCNc1nc(-c2cc(OC)cc(OC)c2)c(-c2ccnc(Nc3cc(F)c(N4CCN(CCS(C)(=O)=O)CC4)c(F)c3)n2)o1 [Example 91]
2 | 0.5 to 5 µM | 0.5 to 5 µM | < 0.1 µM | < 0.1 µM | 0.1 to 1 µM | 0.5 to 5 µM | < 0.5 µM | < 0.5 µM | Fc1cc(Nc2nccc(-c3sc(N4CCCC4)nc3-c3cccc(Cl)c3)n2)ccc1OCCN1CCCC1 [Example 103]
3 | < 0.5 µM | 0.5 to 5 µM | < 0.1 µM | > 1 µM | > 1 µM | 0.5 to 5 µM | < 0.5 µM | < 0.5 µM | CCc1nc(-c2cc(C)cc(OC)c2)c(-c2ccnc(Nc3ccc(OCCO)c(C#N)c3)n2)s1 [Example 107]
4 | 0.5 to 5 µM | 0.5 to 5 µM | < 0.1 µM | > 1 µM | > 1 µM | 0.5 to 5 µM | 0.5 to 5 µM | 0.5 to 5 µM | CCNc1nc(-c2cc(OC)cc(OC)c2)c(-c2ccnc(Nc3ccc(N4CCOCC4)c(F)c3)n2)o1 [Example 118]
5 | 0.5 to 5 µM | 0.5 to 5 µM | < 0.1 µM | > 1 µM | > 1 µM | 0.5 to 5 µM | < 0.5 µM | < 0.5 µM | CCNc1nc(-c2cc(OC)cc(OC)c2)c(-c2ccnc(Nc3ccc(OC4CCN(CCO)CC4)c(F)c3)n2)o1 [Example 124]
